Here are results for five molecules from US9504747B2, “Lipids and lipid compositions for the delivery of active agents” (Novartis AG, priority 2013, dated 2016).

Test system in one data set: not listed separately
The data set can be described thus: pKa measurement of the cationic lipid (TNS fluorescence vs pH). It counts as physicochemical. Particulars: probe TNS (fluorescent probe), Table 4; pKa of the cationic lipid of formula (I). The procedure, abridged: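 Lipid (2 mM ethanol stock) mixed with TNS probe (0.3 mM stock) and diluted into twelve sodium phosphate/citric acid buffers of varying pH. TNS fluorescence read after background subtraction and normalized to the lowest-pH value. pKa taken as the pH at half-maximal normalized fluorescence on the smoothed curve, precise to about 0.1 units.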
For the molecule `CCCCC/C=C\C/C=C\CCCCCCCC(=O)OCCCCOc1cc(CN(C)C)cc(OCCCCOC(=O)CCCCCCC/C=C\CCCCCCCC)c1` [Example 63], the pKa is 5.92.
In turn, `CCCCC/C=C\C/C=C\CCCCCCCC(=O)OCc1cc(COC(=O)CCCCCCC/C=C\C/C=C\CCCCC)cc(COC(=O)OCCCN(CC)CC)c1` [Example 69] showed a pKa of 5.3.
On to `CCCCCCCC(=O)OCC(CCOc1cc(CN(C)C)cc(OCCC(COC(=O)CCCCCCC)OC(=O)CCCCCCC)c1)OC(=O)CCCCCCC` (centres unmarked) [Example 91], for which the pKa amounted to 6.01.
The same measure, in the same setting: the value for `CCCCCCCC(=O)OCC(COC(=O)CCCCCCC)COc1cc(CN(C)C)cc(OCC(COC(=O)CCCCCCC)COC(=O)CCCCCCC)c1` [Example 111] was 6.27; that for `CCCCC/C=C\C/C=C\CCCCCCCC(=O)OCCCCOc1cc(CN2CCCC2)cc(OCCCCOC(=O)CCCCCCC/C=C\C/C=C\CCCCC)c1` [Example 112] was 6.08.

The same data set, now with this note: probe TNS (fluorescent probe), Table 5; pKa of the cationic lipid of formula (I).
`CCCCC/C=C\C/C=C\CCCCCCCC(=O)OCCCCOc1cc(CN(C)C)cc(OCCCCOC(=O)CCCCCCC/C=C\CCCCCCCC)c1` [Example 63]: the pKa came out at 5.9.
Same read-out and setting: the value for `CCCCCCCC(=O)OCC(CCOc1cc(CN(C)C)cc(OCCC(COC(=O)CCCCCCC)OC(=O)CCCCCCC)c1)OC(=O)CCCCCCC` (centres unmarked) [Example 91] was 6.01.

Test system in a further data set: not listed separately
Briefly: Polydispersity index (PDI) of the lipid nanoparticle (dynamic light scattering). Particulars: Table 4; FVII siRNA LNP; Chol/DSPC/stealth lipid PEG-DMG, 45/44/9/2. The format is physicochemical. The source says: The lipid nanoparticles (LNPs) were formed by mixing equal volumes of lipids dissolved in alcohol with siRNA dissolved in a citrate buffer by an impinging jet process. […] The siRNA to total lipid ratio is approximately 0.05 (wt/wt). Where a LNP formulation contains four lipid components, the molar ratios correspond to the type of lipid as it appears in the first four columns of the table, in the order that they appear. The ratio of the lipids ranges from 20 to 70 mole percent for the cationic lipid with a target of 40-60, the mole percent of helper lipid ranges from 20 to 70 with a target of 30 to 50, the mole percent of neutral lipid ranges from 0-30, the mole percent of PEG lipid has a range from 1 to 6 with a target of 2 to 5. The concentration of siRNA solution ranges from 0.7 to 1.0 mg/mL with a target of 0.8 to 0.9 mg/mL in a sodium citrate: sodium chloride buffer pH 4-6, with a target of 4.5-5.5. The LNPs are formed by mixing equal volumes of lipid solution in ethanol with siRNA dissolved in a citrate buffer by an impinging jet process through a mixing device with ID ranging from 0.25 to 2.0 mm at a flow rate from 10 to 640 mL/min. The mixed LNP solution is held at room temperature for 0-24 hrs prior to a dilution step. […] The final product is sterile filtered and stored at 4° C. Unless indicated otherwise, all PDIs referred to herein are the PDI of the fully formed nanoparticle, as measured by dynamic light scattering on a Malvern Zetasizer. The nanoparticle sample was diluted in phosphate buffered saline (PBS) so that the count rate was approximately 200-400 kcts. The data is presented in Tables 4 and 5 as a weighted average of the intensity measure.
With `CCCCCCCC(=O)OCC(CCOc1cc(CN(C)C)cc(OCCC(COC(=O)CCCCCCC)OC(=O)CCCCCCC)c1)OC(=O)CCCCCCC` (centres unmarked) [Example 91], the PDI is 0.06.
On the same count and under the same terms, the figure for `CCCCC/C=C\C/C=C\CCCCCCCC(=O)OCCCCOc1cc(CN2CCCC2)cc(OCCCCOC(=O)CCCCCCC/C=C\C/C=C\CCCCC)c1` [Example 112] is 0.1.

Still in this data set, the particulars now being: Table 4; FVII siRNA LNP; Chol/DSPC/stealth lipid S010, 45/44/9/2.
Consider `CCCCC/C=C\C/C=C\CCCCCCCC(=O)OCCCCOc1cc(CN(C)C)cc(OCCCCOC(=O)CCCCCCC/C=C\CCCCCCCC)c1` [Example 63], for which the PDI stood at 0.057.
Still for that read-out and setting: the value for `CCCCC/C=C\C/C=C\CCCCCCCC(=O)OCc1cc(COC(=O)CCCCCCC/C=C\C/C=C\CCCCC)cc(COC(=O)OCCCN(CC)CC)c1` [Example 69] was 0.053; that for `CCCCCCCC(=O)OCC(CCOc1cc(CN(C)C)cc(OCCC(COC(=O)CCCCCCC)OC(=O)CCCCCCC)c1)OC(=O)CCCCCCC` (centres unmarked) [Example 91] was 0.053.
Same read-out and setting: the value for `CCCCCCCC(=O)OCC(COC(=O)CCCCCCC)COc1cc(CN(C)C)cc(OCC(COC(=O)CCCCCCC)COC(=O)CCCCCCC)c1` [Example 111] was 0.048.

The data set is the same for the next values; noted with them: Table 5; PLK1-424 siRNA LNP; stealth lipid PEG-DSG, 45/44/9/2.
Molecule `CCCCC/C=C\C/C=C\CCCCCCCC(=O)OCCCCOc1cc(CN(C)C)cc(OCCCCOC(=O)CCCCCCC/C=C\CCCCCCCC)c1` [Example 63] gave a PDI of 0.047.

Still in this data set, the particulars now being: Table 5; PLK1-424 siRNA LNP; stealth lipid S010, 45/44/9/2.
Molecule `CCCCCCCC(=O)OCC(CCOc1cc(CN(C)C)cc(OCCC(COC(=O)CCCCCCC)OC(=O)CCCCCCC)c1)OC(=O)CCCCCCC` (centres unmarked) [Example 91] showed a PDI of 0.032.

Test system in another data set: not listed separately
The data set can be described thus: Particle size of the lipid nanoparticle (dynamic light scattering, Malvern Zetasizer). The format is physicochemical. Particulars: Table 4; FVII siRNA LNP; Chol/DSPC/stealth lipid PEG-DMG, molar ratio 45/44/9/2; Z-average. The source says: The lipid nanoparticles have a size of about 1 to about 2,500 nm, about 1 to about 1,500 nm, about 1 to about 1,000 nm, in a sub-embodiment about 50 to about 600 nm, in a sub-embodiment about 50 to about 400 nm, in a sub-embodiment about 50 to about 250 nm, and in a sub-embodiment about 50 to about 150 nm. Unless indicated otherwise, all sizes referred to herein are the average sizes (diameters) of the fully formed nanoparticle, as measured by dynamic light scattering on a Malvern Zetasizer. The nanoparticle sample is diluted in phosphate buffered saline (PBS) so that the count rate is approximately 200-400 kcts. The data is presented as a weighted average of the intensity measure. The lipid nanoparticles (LNPs) were formed by mixing equal volumes of lipids dissolved in alcohol with siRNA dissolved in a citrate buffer by an impinging jet process. […] The siRNA to total lipid ratio is approximately 0.05 (wt/wt). Where a LNP formulation contains four lipid components, the molar ratios correspond to the type of lipid as it appears in the first four columns of the table, in the order that they appear. The ratio of the lipids ranges from 20 to 70 mole percent for the cationic lipid with a target of 40-60, the mole percent of helper lipid ranges from 20 to 70 with a target of 30 to 50, the mole percent of neutral lipid ranges from 0-30, the mole percent of PEG lipid has a range from 1 to 6 with a target of 2 to 5. The concentration of siRNA solution ranges from 0.7 to 1.0 mg/mL with a target of 0.8 to 0.9 mg/mL in a sodium citrate: sodium chloride buffer pH 4-6, with a target of 4.5-5.5. The LNPs are formed by mixing equal volumes of lipid solution in ethanol with siRNA dissolved in a citrate buffer by an impinging jet process through a mixing device with ID ranging from 0.25 to 2.0 mm at a flow rate from 10 to 640 mL/min. The mixed LNP solution is held at room temperature for 0-24 hrs prior to a dilution step. […] The final product is sterile filtered and stored at 4° C. Unless indicated otherwise, all particle size measurements referred to in Tables 4 and 5 are the Z-average particle size of the fully formed nanoparticle, as measured by dynamic light scattering on a Malvern Zetasizer. The nanoparticle sample was diluted in phosphate buffered saline (PBS) so that the count rate is approximately 200-400 kcts.
With `CCCCC/C=C\C/C=C\CCCCCCCC(=O)OCCCCOc1cc(CN2CCCC2)cc(OCCCCOC(=O)CCCCCCC/C=C\C/C=C\CCCCC)c1` [Example 112], the “Size (nm)” value is recorded as 96.1 nm.

The data set is the same for the next values; noted with them: Table 4; FVII siRNA LNP; Chol/DSPC/stealth lipid S010, molar ratio 45/44/9/2; Z-average.
For `CCCCC/C=C\C/C=C\CCCCCCCC(=O)OCc1cc(COC(=O)CCCCCCC/C=C\C/C=C\CCCCC)cc(COC(=O)OCCCN(CC)CC)c1` [Example 69], the “Size (nm)” value stood at 98.13 nm.
Take `CCCCCCCC(=O)OCC(COC(=O)CCCCCCC)COc1cc(CN(C)C)cc(OCC(COC(=O)CCCCCCC)COC(=O)CCCCCCC)c1` [Example 111]: the “Size (nm)” value is 161.9 nm.

In another data set the test system is PLK-1 mRNA. Briefly: LS411N Xenograft Assay with PLK1-424 siRNA lipid nanoparticles. It counts as in vivo, Female Nu/Nu mice. Particulars: percent knock down of PLK-1 mRNA in tumor vs control; 3 mg/kg IV daily for three days, 24 h post last injection; stealth lipid PEG-DSG. As to the method:
Female Nu/Nu mice (6-8 weeks old) were implanted subcutaneously with 5×10^6 LS411N cells. Tumor growth was monitored by caliper measurement before treatment initiation. Mice bearing 150-250 mm^3 subcutaneous tumors were randomized and enrolled in the study. The stock siRNA formulations were diluted to […] with PBS for dosing. Animals enrolled in different groups received a single daily bolus IV injection of 3 mg/kg siRNA for three days. Tumors were harvested 24 hours post last injection to assess target gene regulation by qRT-PCR.
Lipid nanoparticles comprising lipid compounds of formula (I) and the PLK1-424 siRNA duplex sequence listed above were tested in the LS411N Xenograft Assay. The results of this assay are given in Table 5 below as a percent knock down of PLK-1 mRNA as compared to the control when administered as a single daily dose for three days at a dose of 3 mg/kg.
With `CCCCC/C=C\C/C=C\CCCCCCCC(=O)OCCCCOc1cc(CN(C)C)cc(OCCCCOC(=O)CCCCCCC/C=C\CCCCCCCC)c1` [Example 63], the “LS411 KD 3 × 3 mg/Kg” value turned out to be 66%.

The same data set, now with this note: percent knock down of PLK-1 mRNA in tumor vs control; 3 mg/kg IV daily for three days, 24 h post last injection; stealth lipid S010.
Take `CCCCCCCC(=O)OCC(CCOc1cc(CN(C)C)cc(OCCC(COC(=O)CCCCCCC)OC(=O)CCCCCCC)c1)OC(=O)CCCCCCC` (centres unmarked) [Example 91]: the “LS411 KD 3 × 3 mg/Kg” value is 45%.

In a further data set the test system is respiratory syncytial virus F protein. The data set can be described thus: Immunization studies: anti-RSV-F titers after liposome-delivered vA317 self-replicating RNA. It counts as in vivo. Particulars: BALB/c mice; Course A = days 0 & 21; 2 weeks after first dose; liposomes with 0.1 μg vA317 replicon (naked control 1 μg). As to the method: BALB/c were immunized with liposomes comprising DSPC, cholesterol, and various lipids of the invention (or, for comparison, the cationic lipid 1,2-dilinoleyloxy-N,N-dimethyl-3-aminopropane or ‘DLinDMA’). The liposomes encapsulated 0.1 μg of “vA317” self-replicating RNA replicon which encodes respiratory syncytial virus F protein (see WO2012/031043). […] Doses were given either on days 0 & 21 or days 0 & 42. Immune responses were assessed 2 weeks after each dose (2wp1, 2wp2), and in some cases also at 4 weeks after the second dose (4wp2). Four series of experiments were performed, each with its own naked control.
(In antiviral work, replicon cells carry a viral genome segment that copies itself.)
On to `CCCCC/C=C\C/C=C\CCCCCCCC(=O)OCc1cc(COC(=O)CCCCCCC/C=C\C/C=C\CCCCC)cc(COC(=O)OCCCN(CC)CC)c1` [Example 69], for which the “anti-RSV-F titer 2wp1 pool 1” value is 2853 and the “anti-RSV-F titer 2wp1 pool 2” value came to 4481.

Staying with this data set, now noted: BALB/c mice; Course A = days 0 & 21; 2 weeks after second dose; liposomes with 0.1 μg vA317 replicon (naked control 1 μg).
Regarding `CCCCC/C=C\C/C=C\CCCCCCCC(=O)OCc1cc(COC(=O)CCCCCCC/C=C\C/C=C\CCCCC)cc(COC(=O)OCCCN(CC)CC)c1` [Example 69], the “anti-RSV-F titer 2wp2 pool 1” value was 23851 and the “anti-RSV-F titer 2wp2 pool 2” value was found to be 20793.

Staying with this data set, now noted: BALB/c mice; Course A = days 0 & 21; 4 weeks after second dose; liposomes with 0.1 μg vA317 replicon (naked control 1 μg).
For `CCCCC/C=C\C/C=C\CCCCCCCC(=O)OCc1cc(COC(=O)CCCCCCC/C=C\C/C=C\CCCCC)cc(COC(=O)OCCCN(CC)CC)c1` [Example 69], the “anti-RSV-F titer 4wp2 pool 1” value stood at 19075 and the “anti-RSV-F titer 4wp2 pool 2” value stood at 21504.

Usually pKa stands for the negative logarithm of the acid dissociation constant. Lower therefore signals a group that gives up its proton readily.
